Measurements taken from EP0103381B1, “Substituted anthra(1,9-cd)pyrazol-6(2H)-ones” (WARNER-LAMBERT COMPANY, priority 1982, dated 1984).

What was measured:
[1] = system: lymphocytic leukemia P388; experiment: in vivo lymphocytic leukemia P388 test; set-up: species or system mice; settings: Mus musculus, P388, ip, 720 h, two single doses four days apart, read-out: T/C × 100 (Percent); for response vs control in vivo at 12.5 mg/kg: P388, Dose 12.5 mg/kg intraperitoneally; for response vs control in vivo at 25 mg/kg: P388, Dose 25 mg/kg intraperitoneally; for response vs control in vivo at 50 mg/kg: P388, Dose 50 mg/kg intraperitoneally; for response vs control in vivo at 0.78 mg/kg: P388, Dose 0.78 mg/kg intraperitoneally; for response vs control in vivo at 1.56 mg/kg: P388, Dose 1.56 mg/kg intraperitoneally; for response vs control in vivo at 3.12 mg/kg: P388, Dose 3.12 mg/kg intraperitoneally; for response vs control in vivo at 6.25 mg/kg: P388, Dose 6.25 mg/kg intraperitoneally; for response vs control in vivo at 100 mg/kg: P388, Dose 100 mg/kg intraperitoneally
In short: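 CD2F mice (6–7 per group) were inoculated intraperitoneally with P388 leukemia ascitic cells. Compounds were then given i.p. as two doses four days apart at various levels. Survival over 30 days was expressed as treated/control time ratio, efficacy criterion T/C×100 >125%.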

[2] = system: Penicillium avellaneum; experiment: agar plate paper-disc inhibition zone screening; format: cell-based; settings: Hamigera avellanea; Dose 3.0 mg/ml; read-out: Inhibition Zone Diameter mm (Dose mg/ml) P. Avellaneum
Experimental: The Penicillium avellaneum is grown for six days, at 28°C, on an agar medium. This is to allow sporulation of the culture. The organism is then harvested by scraping off the cells from the agar surface (mycelia and spores) and suspending them in saline solution containing 0.05% Tween 80.
The suspension is adjusted to a light transmittancy of 20%. One ml of this suspension is used to inoculate 100 ml of the molten-agar assay medium.
(§1) Stainless steel frames, 12.3 x 25.3 cm (ID) and glass plates, 15.3 x 31.7 cm are used to make the test trays. The frames are attached to the plates with tape at each end and the inner edges sealed with 2% agar. Twenty five ml of inoculated assay medium is spread evenly on each tray and allowed to solidify. The trays are covered, inverted, and refrigerated until used.
(§2) The compounds or samples to be tested are dissolved in suitable solvents, e.g., alcohols, dimethylsulfoxide, or N,N-dimethylformamide. The samples are generally dissolved so that the final concentration of the solvent is <10%.^* The compounds are tested at different concentrations: 3,000; 1,000; 500; 100; and 10 mcg/ml. Paper discs (12.7 mm diameter) are placed on the agar trays with forceps, then 0.08 ml of the dissolved compound is pipetted onto each disc using a 0.2 ml pipette.
(§3) The disked agar trays are incubated overnight (18-20 hours) at 37°C for the bacterial cultures and 28°C for the yeasts. The Penicillium avellaneium tray is incubated for at least […] since it is a slower- growing organism.
(§4) Active compounds show a zone of inhibition around the disc. The diameter of the zone is measured in mm. The zone diameter of active compounds ranges from a minimum of 13.5 mm to as high as 60 mm. The size of the zone diameter generally reflects the activity of the compound: the larger the zone the greater the activity.

[3] = system: Streptococcus faecalis; experiment: agar plate paper-disc inhibition zone screening; format: cell-based; settings: Enterococcus faecalis, read-out: Inhibition Zone Diameter mm (Dose mg/ml) S. Faecalis; for zone of inhibition at 3000 µg/mL: Dose 3.0 mg/ml
Experimental: (§5) The bacterial and yeast isolates are maintained in agar slants or in liquid media, hereby designated as inoculum media. The cultures are transferred at regular intervals in such media. (See Table for the corresponding inoculum media of each culture.) The organisms are generally transferred on to agar slants or liquid inoculum media and incubated overnight (18-20 hours): 37°C for the bacterial isolates and 28°C for the fungal cultures.
(§6) The microbial cells from the overnight agar slants are then scraped off and suspended in saline solution (0.85% NaCI). The microbial concentrations are adjusted to a light transmittancy of 20-35%, Junior Coleman Spectrophotometer (555 M). For the organisms that are maintained in liquid media, an aliquot of the culture suspension is simply diluted with saline to 20-35% light transmittancy.
(§7) The above microbial suspension serve as inocula for the assay plates. Thus, 0.16-10 ml (see Table for exact amount) are used to inoculate 100 ml of the molten-agar assay medium.
as §1, §2, §3, §4

[4] = system: Bacillus subtilis; experiment: agar plate paper-disc inhibition zone screening; format: cell-based; settings: read-out: Inhibition Zone Diameter mm (Dose mg/ml) B. Subtilis; for zone of inhibition at 3000 µg/mL: Dose 3.0 mg/ml
Experimental: as §5, §6, §7, §1, §2, §3, §4

[5] = system: Aerobacter aerogenes; experiment: agar plate paper-disc inhibition zone screening; format: cell-based; settings: Klebsiella aerogenes, read-out: Inhibition Zone Diameter mm (Dose mg/ml) A. Aerogenes; for zone of inhibition at 3000 µg/mL: Dose 3.0 mg/ml; for zone of inhibition at 500 µg/mL: Dose 0.5 mg/ml
Experimental: as §5, §6, §7, §1, §2, §3, §4

[6] = system: Escherichia coli; experiment: agar plate paper-disc inhibition zone screening; format: cell-based; settings: read-out: Inhibition Zone Diameter mm (Dose mg/ml) E. Coli; for zone of inhibition at 500 µg/mL: Dose 0.5 mg/ml; for zone of inhibition at 3000 µg/mL: Dose 3.0 mg/ml; for zone of inhibition at 1000 µg/mL: Dose 1.0 mg/ml
Experimental: as §5, §6, §7, §1, §2, §3, §4

Structure (SMILES): CCN(CC)CCNc1ccc2c3c(nn2CC(O)CN(CC)CC)-c2c(O)ccc(O)c2C(=O)c13 (centres unmarked) [Example 44]
- response vs control in vivo at 12.5 mg/kg [1]: 128%
- response vs control in vivo at 25 mg/kg [1]: 131%
- response vs control in vivo at 50 mg/kg [1]: 131%
- zone of inhibition at 3000 µg/mL [2]: 0 mm
- zone of inhibition at 3000 µg/mL [3]: 14 mm
- zone of inhibition at 3000 µg/mL [4]: 15 mm
- zone of inhibition at 3000 µg/mL [5]: 14 mm
- zone of inhibition at 500 µg/mL [6]: 15 mm

Structure (SMILES): CCN(CC)CCn1nc2c3c(c(NCCNCCO)ccc31)C(=O)c1ccccc1-2 [Example 2]
- response vs control in vivo at 0.78 mg/kg [1]: 135%
- response vs control in vivo at 1.56 mg/kg [1]: 142%
- response vs control in vivo at 25 mg/kg [1]: 197%
- zone of inhibition at 3000 µg/mL [2]: 0 mm
- zone of inhibition at 500 µg/mL ([3]; Dose 0.5 mg/ml): 15 mm
- zone of inhibition at 100 µg/mL ([4]; Dose 0.1 mg/ml): 16 mm
- zone of inhibition at 500 µg/mL [5]: 18 mm
- zone of inhibition at 100 µg/mL ([6]; Dose 0.1 mg/ml): 14 mm

Structure (SMILES): CN(C)CCCn1nc2c3c(c(NCCCN)ccc31)C(=O)c1c(O)ccc(O)c1-2 [Example 47, 5-[(3-Aminopropyl)amino]-2-[3-(dimethylamino)propyl]-7,10-dihydroxyanthra[1,9-cd]pyrazol-6(2H)-one]
- response vs control in vivo at 12.5 mg/kg [1]: 173%
- response vs control in vivo at 25 mg/kg [1]: 194%
- zone of inhibition at 3000 µg/mL [2]: 0 mm
- zone of inhibition at 3000 µg/mL [3]: 0 mm
- zone of inhibition at 3000 µg/mL [4]: 14 mm
- zone of inhibition at 3000 µg/mL [5]: 14 mm
- zone of inhibition at 3000 µg/mL [6]: 14 mm

Structure (SMILES): O=C1c2c(O)ccc(O)c2-c2nn(CCNCCO)c3ccc(NCCNCCO)c1c23 [Example 54, 7,10-Dihydroxy-2-[2-[12-hydroxyethyl)amino]ethyl]-5-[[2-[(2-hydroxyethyl)amino]ethyl]amino]anthra[1,9-cdlpyrazol-6(2H)-one]
- response vs control in vivo at 1.56 mg/kg [1]: 158%
- response vs control in vivo at 3.12 mg/kg [1]: 187%
- response vs control in vivo at 6.25 mg/kg [1]: 206%
- response vs control in vivo at 25 mg/kg [1]: 158%
- response vs control in vivo at 50 mg/kg [1]: 139%
- zone of inhibition at 3000 µg/mL [2]: 0 mm
- zone of inhibition at 3000 µg/mL [3]: 0 mm
- zone of inhibition at 3000 µg/mL [4]: 14 mm
- zone of inhibition at 3000 µg/mL [5]: 15 mm
- zone of inhibition at 1000 µg/mL [6]: 14 mm

Structure (SMILES): CN(C)CCNc1ccc2c3c(nn2CCO)-c2c(O)ccc(O)c2C(=O)c13 [Example 39]
- response vs control in vivo at 12.5 mg/kg [1]: 124%
- response vs control in vivo at 25 mg/kg [1]: 153%
- response vs control in vivo at 50 mg/kg [1]: 180%
- response vs control in vivo at 100 mg/kg [1]: 225%
- zone of inhibition at 3000 µg/mL [2]: 0 mm
- zone of inhibition at 3000 µg/mL [3]: 14 mm
- zone of inhibition at 3000 µg/mL [4]: 0 mm
- zone of inhibition at 500 µg/mL [5]: 15 mm
- zone of inhibition at 3000 µg/mL [6]: 0 mm

Structure (SMILES): NCCCCNc1ccc2c3c(nn2CCNCCO)-c2c(O)ccc(O)c2C(=O)c13 [Example 59, 5-[(4-Aminobutyl)amino]-7,10-dihydroxy-2-[2-[(2-hydroxyethyl)amino]ethyl]anthra[1,9-cd]pyrazol-6(2H)-one]
- response vs control in vivo at 3.12 mg/kg [1]: 130%
- response vs control in vivo at 6.25 mg/kg [1]: 131%
- response vs control in vivo at 12.5 mg/kg [1]: 139%
- response vs control in vivo at 25 mg/kg [1]: 150%
- response vs control in vivo at 100 mg/kg [1]: 172%
- zone of inhibition at 3000 µg/mL [2]: 0 mm
- zone of inhibition at 3000 µg/mL [3]: 0 mm
- zone of inhibition at 3000 µg/mL [4]: 0 mm
- zone of inhibition at 3000 µg/mL [5]: 16 mm
- zone of inhibition at 3000 µg/mL [6]: 15 mm

Structure (SMILES): CN(C)CCn1nc2c3c(c(NCCCN)ccc31)C(=O)c1c(O)ccc(O)c1-2 [Example 34, 5-[(3-Aminopropyl)amino]-2-[2-(dimethylamino)ethyl]-7,10-dihydroxyanthra[1,9-cd]pyrazol-6(2H)-one]
- response vs control in vivo at 6.25 mg/kg [1]: 196%
- response vs control in vivo at 12.5 mg/kg [1]: 205%
- zone of inhibition at 3000 µg/mL [2]: 0 mm
- zone of inhibition at 3000 µg/mL [3]: 0 mm
- zone of inhibition at 3000 µg/mL [4]: 0 mm
- zone of inhibition at 3000 µg/mL [5]: 14 mm
- zone of inhibition at 3000 µg/mL [6]: 15 mm

Structure (SMILES): CN(C)CCn1nc2c3c(c(NCCN)ccc31)C(=O)c1c(O)ccc(O)c1-2 [Example 33, 5-[(2-Aminoethyl)amino]-2-[2-(dimethylamino)ethyl]-7,10-dihydroxyanthra[1,9-cd]pyrazol-6(2H)-one]
- response vs control in vivo at 3.12 mg/kg [1]: 182%
- response vs control in vivo at 6.25 mg/kg [1]: 182%
- zone of inhibition at 3000 µg/mL [2]: 0 mm
- zone of inhibition at 3000 µg/mL [3]: 16 mm
- zone of inhibition at 1000 µg/mL ([4]; Dose 1.0 mg/ml): 14 mm
- zone of inhibition at 500 µg/mL [5]: 14 mm
- zone of inhibition at 500 µg/mL [6]: 14 mm

Structure (SMILES): CN(C)CCN(C)c1ccc2c3c(nn2CCNCCO)-c2c(O)ccc(O)c2C(=O)c13 [Example 65, 5-([2-(Dimethylamino)ethyl]methylamino]-7,10-dihydroxy-2-[2-[(2-hydroxyethyl)amino]ethyl]anthra[1,9-cd]pyrazol-6(2H)-one]
- response vs control in vivo at 6.25 mg/kg [1]: 179%
- response vs control in vivo at 12.5 mg/kg [1]: 188%
- zone of inhibition at 3000 µg/mL [2]: 0 mm
- zone of inhibition at 3000 µg/mL [3]: 0 mm
- zone of inhibition at 3000 µg/mL [4]: 0 mm
- zone of inhibition at 500 µg/mL [5]: 16 mm
- zone of inhibition at 3000 µg/mL [6]: 15 mm

Structure (SMILES): CCN(CC)CC(O)Cn1nc2c3c(c(NCCNCCO)ccc31)C(=O)c1c(O)ccc(O)c1-2 (centres unmarked) [Example 43, 2-[3-(Diethylamino)-2-hydroxypropyl]-7,10-dihydroxy-5-[[2-[(2-hydroxyethyl)amino]ethyl]amino]-anthra[1,9-cd]pyrazol-6(2H)-one]
- response vs control in vivo at 0.78 mg/kg [1]: 132%
- response vs control in vivo at 1.56 mg/kg [1]: 139%
- zone of inhibition at 3000 µg/mL [2]: 0 mm
- zone of inhibition at 3000 µg/mL [3]: 15 mm
- zone of inhibition at 3000 µg/mL [4]: 14 mm
- zone of inhibition at 500 µg/mL [5]: 16 mm
- zone of inhibition at 500 µg/mL [6]: 16 mm

Structure (SMILES): COCCn1nc2c3c(c(NCCNCCO)ccc31)C(=O)c1c(O)ccc(O)c1-2 [Example 76, 7,10-Dihydroxy-5-[[2-[(2-hydroxyethyl)amino]ethyl]amino]-2-(2-methoxyethyl)anthra[1,9-cd]pyrazol-6(2H)-one]
- response vs control in vivo at 12.5 mg/kg [1]: 127%
- response vs control in vivo at 25 mg/kg [1]: 127%
- response vs control in vivo at 50 mg/kg [1]: 135%
- response vs control in vivo at 100 mg/kg [1]: 139%
- zone of inhibition at 3000 µg/mL [2]: 0 mm
- zone of inhibition at 3000 µg/mL [3]: 0 mm
- zone of inhibition at 3000 µg/mL [4]: 14 mm
- zone of inhibition at 3000 µg/mL [5]: 14 mm
- zone of inhibition at 1000 µg/mL [6]: 14 mm
